Type in all cases: biochemical
The target in assay [1] is T1, IP6KA^wt (Entamoeba histolytica, UniProt N9UNA8).
T1 sequence (N9UNA8 1-270): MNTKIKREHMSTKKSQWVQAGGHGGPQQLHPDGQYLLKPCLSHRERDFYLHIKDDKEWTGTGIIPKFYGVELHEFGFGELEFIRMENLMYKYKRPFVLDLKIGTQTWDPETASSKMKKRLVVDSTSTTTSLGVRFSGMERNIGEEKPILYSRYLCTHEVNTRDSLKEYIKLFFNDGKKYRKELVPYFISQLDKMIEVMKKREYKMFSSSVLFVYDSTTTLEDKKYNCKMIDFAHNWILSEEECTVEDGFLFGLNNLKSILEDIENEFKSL
The assay can be described thus: NMR activity assay for EhIP6KA constructs. As to the method: The NMR assay for EhIP6KA activity was performed similarly as described before ([Harmel et al., 2019]) with slight alterations. Enzyme assays were performed in D2O in a total volume of 150 µl containing 20 mM MES pH* 6.4, 50 mM NaCl, 6 mM MgCl2, 1 mM ATP, 0.2 mg/ml BSA, 1 mM DTT, 5 mM creatine phosphate, and 1 U/ml creatine kinase (ATP-regenerating system) and 50 nM kinase if not otherwise stated. MES, NaCl, and BSA were prepared as buffer A and DTT and creatine phosphate as buffer B in D2O and were adjusted to pH* 6.4, respectively. If applicable, inhibitor was added as a DMSO-d6 stock in a twofold dilution series at a final DMSO concentration of 1% if not otherwise mentioned. Otherwise, DMSO-d6 was added to the same percentage. The samples were equilibrated at 37°C for 3 min and the reaction initiated by adding 100 µM [^13C6]-InsP6. The reaction was quenched with 400 µl quenching solution (20 mM EDTA pD 6.0, 68.75 mM NaCl) and transferred into an NMR tube before being measured on a Bruker […] 600 PLUS with an NMR pulse program developed previously ([Harmel et al., 2019]).

In assay [2] the target is T2, IP6K2^L206V (Homo sapiens, UniProt Q9UHH9, L206V).
T2 construct: made in house; host or cells: E. coli Arctic Express
T2 sequence (Q9UHH9 1-426 L206V): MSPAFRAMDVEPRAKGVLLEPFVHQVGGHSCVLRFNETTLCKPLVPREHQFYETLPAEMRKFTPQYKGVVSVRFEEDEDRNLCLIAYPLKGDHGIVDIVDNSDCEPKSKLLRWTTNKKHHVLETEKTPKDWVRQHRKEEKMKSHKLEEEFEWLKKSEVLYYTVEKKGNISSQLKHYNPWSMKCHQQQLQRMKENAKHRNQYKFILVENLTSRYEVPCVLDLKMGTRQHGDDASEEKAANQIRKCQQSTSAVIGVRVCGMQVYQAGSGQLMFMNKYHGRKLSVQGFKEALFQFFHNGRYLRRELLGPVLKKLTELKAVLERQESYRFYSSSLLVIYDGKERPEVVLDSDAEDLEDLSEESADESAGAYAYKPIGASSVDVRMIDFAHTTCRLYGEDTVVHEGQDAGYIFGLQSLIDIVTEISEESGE
The assay can be described thus: NMR activity assay, [13C6]-InsP6 to 5PP-InsP5. As to the method:
(§1) The NMR assay for IP6K activity was performed similarly as described before ([Harmel et al., 2019]) with slight alterations. Enzyme assays were performed in D2O in a total volume of 150 µl containing 20 mM 4-(2-hydroxyethyl)-1-piperazineethanesulfonic acid (HEPES) pH* 6.8, 50 mM NaCl, 6 mM MgCl2, 1 mM ATP, 0.2 mg/ml BSA, 1 mM DTT, 5 mM creatine phosphate and 1 U/ml creatine kinase (ATP-regenerating system) and 50 nM kinase if not otherwise stated. HEPES, NaCl, and BSA were prepared as buffer A and DTT and creatine phosphate as buffer B in D2O and were adjusted to pH* 6.8, respectively. If applicable, inhibitor was added as a DMSO-d6 stock in a twofold dilution series at a final DMSO concentration of 1% if not otherwise mentioned. Otherwise, DMSO-d6 was added to the same percentage. The samples were equilibrated at 37°C for 3 min and the reaction initiated by adding 100 µM [^13C6]-InsP6.

The target of assay [3] is T3, IP6K2^wt (Homo sapiens, UniProt Q9UHH9).
T3 construct: made in house; host or cells: E. coli Arctic Express
T3 sequence (Q9UHH9 1-426): T2 sequence (Q9UHH9 1-426 L206V) with V206L
In words: NMR activity assay, [13C6]-InsP6 to 5PP-InsP5. The protocol: as §1

The target in assay [4] is T4, IP6K1^wt (Homo sapiens, UniProt Q92551).
T4 construct: made in house; host or cells: E. coli Arctic Express
The assay can be described thus: NMR activity assay, [13C6]-InsP6 to 5PP-InsP5, with ATP-regenerating system. The following applies: 1 mM ATP, ATP-regenerating system.
Description: (§2) The gatekeeper mutants L210G and L210A of IP6K1 were generated by site-directed mutagenesis and the enzymes were recombinantly expressed, analogous to the WT kinase, as MBP-fusion proteins. To assess their catalytic activity, we used an NMR assay that harnesses fully ^13C-labeled InsP6 as a substrate and enables direct product readout of 5PP-InsP5 (Figure 2b and Figure 2—figure supplement 1; [Puschmann et al., 2019]; [Harmel et al., 2019]). […] Likewise, IP6K2 suffered a drastic decline in substrate turnover upon gatekeeper mutation to glycine (Figure 2—figure supplement 2).
as §1

Assay [5] addresses T5, IP6K1^L210V (Homo sapiens, UniProt Q92551, L210V).
T5 construct: made in house; host or cells: E. coli Arctic Express
The description is as above.
Description: as §2, §1

Where a chain is given by its changes, count along the chain named. Like-named read-outs stand apart in the source and are kept apart here.

T5 sequence (Q92551 whole entry L210V): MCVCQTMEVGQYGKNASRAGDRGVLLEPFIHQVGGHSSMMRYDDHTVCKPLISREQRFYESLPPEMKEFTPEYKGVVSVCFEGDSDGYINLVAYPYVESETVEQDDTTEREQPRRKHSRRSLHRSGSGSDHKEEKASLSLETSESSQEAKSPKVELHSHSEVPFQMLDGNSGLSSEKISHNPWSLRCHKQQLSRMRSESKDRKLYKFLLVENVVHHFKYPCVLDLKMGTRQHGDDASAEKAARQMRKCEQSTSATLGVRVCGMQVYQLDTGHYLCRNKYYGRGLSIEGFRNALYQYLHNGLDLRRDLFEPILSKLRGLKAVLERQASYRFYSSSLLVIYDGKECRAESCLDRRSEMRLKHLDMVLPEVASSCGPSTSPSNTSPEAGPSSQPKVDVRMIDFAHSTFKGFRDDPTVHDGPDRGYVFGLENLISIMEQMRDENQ
T4 sequence (Q92551 whole entry): as the sequence (Q92551 whole entry L210V) above, with V210L counted along it

Consider `O=C(O)c1ccc2c(c1)C(=O)N(c1ccc(-c3nc4ccc(N5C(=O)c6ccc(C(=O)O)cc6C5=O)cc4[nH]3)cc1)C2=O` [FMP-201300], for which the IC50 stood at 5.82 µM in assay [1]; 0.186 µM in assay [2] (NMR assay); 2.14 µM in assay [3]; 2.14 µM in assay [3] (Figure 4b); 0.81 µM in assay [4]; 0.075 µM in assay [5] (100 μM InsP6). Further, the IC50 in assay [5] (500 μM InsP6) amounted to 0.087 µM; in assay [5] (NMR assay, 1 mM ATP, ATP-regenerating system) it was 0.114 µM. Besides, the “times more potent against IP6K2^L206V compared to IP6K2^wt” value in assay [2] (ratio of IC50 values) is 11. In assay [5] (IP6K1^L210V), the “difference in IC50 values measured at 100 and 500 µM InsP6” value is listed as “negligible”.

(Values after PMC10578927, “An unconventional gatekeeper mutation sensitizes inositol hexakisphosphate kinases to an allosteric inhibitor” (eLife, 2023).)
